Measured values: article PMC5447021, “TNF Lectin-Like Domain Restores Epithelial Sodium Channel Function in Frameshift Mutants Associated with Pseudohypoaldosteronism Type 1B” (Frontiers in Immunology, 2017)
“Also recorded” adds a separate entry of the source. Marks after values point to notes of the source that are not given here.

How the values were obtained:
Type in all cases: cell-based, human
αT482fs = test: Membrane abundance of αT482fs
Protocol: Cell surface biotinylation was performed as previously described ([26]). In brief, A549 cells or transiently transfected HEK-293 cells were grown in 10 cm dishes in 37°C, 5% CO2 incubator in DMEM medium supplemented with 5% FBS. […] Medium was aspirated, and then cells were washed twice with 10 ml ice-cold phosphate-buffered saline (PBS), covered with 2.5 mg EZ-Link Sulfo-NHS-SS-Biotin (Thermo Scientific, Rockford, USA), dissolved in 10 ml ice-cold PBS, and incubated at 4°C with gentle agitation for 30 min. Fifty milliliters of quenching solution were added to cells; then cells were scraped in solution and transferred to fresh 50 ml tube. Cell suspension was centrifuged at 500 × g for 3 min. Supernatant was discarded, and 5 ml of Tris-buffered saline (TBS) was added to the cell pellet. The cell pellet was resuspended and centrifuged at 500 × g for 3 min. Supernatant was discarded and cell pellet was resuspended in lysis buffer containing protease inhibitor cocktail (10 µM pepstatin A, 10 µM phenylmethylsulfonyl fluoride, and 10 µM leupeptin) and transferred to fresh 1.5 ml centrifuge tube. Cell pellet was then homogenized on ice by ultrasonication using 1 s bursts and incubated on ice for at least 30 min. Intact cells and nuclei were pelleted by centrifugation at 10,000 × g for 2 min under cooling conditions. Pellet was then discarded and supernatant was transferred to fresh tube, incubated overnight with 0.5 ml NeutrAvidin Agarose under gentle rotation at 4°C and centrifuged at 500 × g for 5 min under cooling conditions. Supernatant was then discarded and the pellet washed twice with 200 µl lysis buffer. The biotinylated proteins were eluted with 100 µl sodium dodecyl sulfate (SDS) sample buffer (62.5 mM Tris, pH 6.8, 1% SDS, 10% glycerine, 50 mM dithiothreitol) containing 10 µM E64 at 65°C for 10 min. Sample was then centrifuged at 500 × g for 2 min. Pellet was discarded and supernatant subjected to protein electrophoresis and immunoblotting. The biotinylated proteins were separated under reducing conditions by SDS-PAGE using 7.5% SDS gel along with prestained protein marker (cat. #12949 from Cell Signaling). Proteins were then transferred onto a nitrocellulose membrane (UltraCruzTM […], Santa Cruz Biotechnology, TX, USA) by semi-dry blotting at 25 V for 30 min. Unspecific binding sites were blocked by incubating the membrane overnight at 4°C with 3% FBS in PBS supplemented with 0.02% sodium azide. Membrane was then incubated for 90 min with primary antibody (anti-α-hENaC, anti-δ-hENaC, and anti-β-actin from Sigma Aldrich; anti-β- and anti-γ-hENaC from Santa Cruz Biotechnology). Membrane was washed 5× with 10 ml PBS containing 0.1% Tween-20 (PBST), and corresponding horseradish peroxidase-conjugated secondary antibodies (Santa Cruz Biotechnology) were applied. After 90-min incubation, membrane was washed 3× with PBST and once with PBS. Enhanced chemiluminescence (ECL) substrate (Amersham ECL Plus Western Blotting Detection Reagent, GE Healthcare, Vienna, Austria) was used for visualization. Following incubation for 2 min, membranes were exposed to X-ray films (Amersham Hyperfilm ECL, GE Healthcare). Exposed films were scanned and quantified using ImageJ (NIH, MD, USA).
To study α-ENaC protein abundance in plasma membrane cell surface, biotinylation of HEK-293 cells transiently transfected with WT or different PHA1B mutants was followed by SDS-PAGE and immunoblotting. Expression of frameshift mutants varied markedly. […]

αT169fs = test: Membrane abundance of αT169fs; conditions: 200 nM, relative to WT control (=1)
Protocol: Cell surface biotinylation was performed as previously described ([26]). In brief, A549 cells or transiently transfected HEK-293 cells were grown in 10 cm dishes in 37°C, 5% CO2 incubator in DMEM medium supplemented with 5% FBS. […] Medium was aspirated, and then cells were washed twice with 10 ml ice-cold phosphate-buffered saline (PBS), covered with 2.5 mg EZ-Link Sulfo-NHS-SS-Biotin (Thermo Scientific, Rockford, USA), dissolved in 10 ml ice-cold PBS, and incubated at 4°C with gentle agitation for 30 min. Fifty milliliters of quenching solution were added to cells; then cells were scraped in solution and transferred to fresh 50 ml tube. Cell suspension was centrifuged at 500 × g for 3 min. Supernatant was discarded, and 5 ml of Tris-buffered saline (TBS) was added to the cell pellet. The cell pellet was resuspended and centrifuged at 500 × g for 3 min. Supernatant was discarded and cell pellet was resuspended in lysis buffer containing protease inhibitor cocktail (10 µM pepstatin A, 10 µM phenylmethylsulfonyl fluoride, and 10 µM leupeptin) and transferred to fresh 1.5 ml centrifuge tube. Cell pellet was then homogenized on ice by ultrasonication using 1 s bursts and incubated on ice for at least 30 min. Intact cells and nuclei were pelleted by centrifugation at 10,000 × g for 2 min under cooling conditions. […] Exposed films were scanned and quantified using ImageJ (NIH, MD, USA). […]

[1] = tested on: αS452fs (co-expressed with βγ-ENaC); test: Whole-cell patch clamp, αS452fs + WT βγ; conditions: read-out: EC50, solnatide, HEK-293, whole-cell, -100 mV, n = 5, p < 0.01 vs WT
Protocol: Point mutations of α-, β-, γ- and δ-hENaC and PHA1B frameshift mutations of α-hENaC were prepared with the QuikChange Lightning Site-Directed Mutagenesis Kit (Agilent Technologies, CA, USA). Mutagenic primers were designed individually with the Primer Design Program provided on the producer’s website or for the frameshift mutations the same base changes as reported in patients (see Table 2) were performed. Primers were ordered from Sigma-Aldrich, Vienna, Austria.
HEK-293 cells were transfected 1 day after cell seeding using X-tremeGENE HP DNA transfection reagent (Roche Diagnostics, Mannheim, Germany) according to the manufacturer’s protocol. A set of WT or mutant αβγ- or δβγ-hENaC, or α-, β-, γ-, or δ-hENaC alone was used, and the ratio of DNA to transfection reagent was 1:3. The expression was highest 48–72 h after transfection.
Electrophysiological experiments were performed as described in detail by Shabbir et al. ([16]). […] Currents were recorded with the patch clamp method in the whole-cell mode. The chamber contained 1 ml of the bath solution of the following composition (in mM): 145 NaCl, 2.7 KCl, 1.8 CaCl2, 2 MgCl2, 5.5 glucose, and 10 HEPES, adjusted to pH 7.4 with 1 M NaOH solution. Micropipettes were pulled from thin-walled borosilicate glass capillaries (Harvard Apparatus, Holliston, MA, USA) with a DMZ Zeitz Puller to obtain electrode resistances ranging from 2 to 5 MΩ. […]

C[C@@H]1NC(=O)CNC(=O)[C@H](CCC(=O)O)NC(=O)[C@@H]2CCCN2C(=O)[C@H]([C@@H](C)O)NC(=O)[C@H](CCC(=O)O)NC(=O)[C@H](CCCNC(=N)N)NC(=O)[C@H](CCC(N)=O)NC(=O)CNC(=O)[C@@H](N)CSSC[C@@H](C(=O)O)NC(=O)[C@H](Cc2ccc(O)cc2)NC(=O)[C@H](Cc2c[nH]c3ccccc23)NC(=O)[C@@H]2CCCN2C(=O)[C@H](CCCCN)NC(=O)[C@H](C)NC(=O)[C@H](CCC(=O)O)NC1=O [solnatide, L-cysteine, L-cysteinylglycyl-L-glutaminyl-L-arginyl-L-α-glutamyl-L-threonyl-L-prolyl-L-α-glutamylglycyl-L-alanyl-L-α-glutamyl-L-alanyl-L-lysyl-L-prolyl-L-tryptophyl-L-tyrosyl-, cyclic (1→17)-disulfide]
Membrane abundance (αT482fs; glycosylated αT482fs, 200 nM solnatide, 5 min, n = 4): even more after 5 min of solnatide treatment
Increase in membrane abundance after PNGase F (αT482fs; αT482fs, 200 nM solnatide, 100 units PNGase F, n = 4): completely abolished in deglycosylated mutants; also recorded: after PNGase F treatment no differences can be observed
Membrane abundance after solnatide (αT482fs; αT482fs, HEK-293, discussion, no time stated): the membrane abundance increasing even further following exposure to solnatide
Membrane abundance, solnatide 5 min (αT482fs; αT482fs, 200 nM, 5 min, relative to WT control (=1), own control 4.67 ± 0.27, p < 0.001 vs control, n = 4): 6.23 ± 0.24***
Membrane abundance, solnatide 10 min (αT482fs; αT482fs, 200 nM, 10 min, relative to WT control (=1), own control 4.67 ± 0.27, n = 4): 4.58 ± 0.30
Membrane abundance, solnatide 5 min (αT169fs; 5 min, own control 0.54 ± 0.06, p < 0.001 vs control): 0.80 ± 0.03
Membrane abundance, solnatide 10 min (αT169fs; 10 min, own control 0.54 ± 0.06): 0.46 ± 0.09
EC50 [1]: 68.5 ± 4.1 nM
